Patent US7407775B2, “Method for identifying Listeria monocytogenes and culture medium” (Biomerieux S.A., priority 2000, dated 2008)

Experiments:
Experiment in all cases: Experiment 3: detecting an esterase activity in liquid medium (API-type strips)
Assay type in all cases: cell-based
Set-up in all cases: key: —: the symbol “-” corresponds to the absence of color or intensity; 0 corresponds to no activity; 0.1 corresponds to a trace of color; 0.5 corresponds to very pale coloration; 1 corresponds to clear but low-intensity coloration; 1.5 corresponds to a degree of coloration intermediate between scores 1 and 2; 2 corresponds to clear coloration of moderate intensity; 2.5 corresponds to a degree of coloration intermediate between scores 2 and 3; 3 corresponds to intense coloration; 3.5 corresponds to a degree of coloration intermediate between scores 3 and 4; 4 corresponds to very intense coloration
Settings in all cases: 37° C.
Listeria welshimeri 023 = tested on: Listeria welshimeri 023
Protocol: (§1) In Table 1 above, as in the following Tables, C represents the color of the colonies after incubation, I represents the intensity of the color, and the symbol “-” corresponds to the absence of color or intensity; finally, IT defines the incubation time. It should be noted that the intensity of the color is scored on an arbitrary scale but one which is consistent for all the biological specimens and media tested. This scale is valid for this experiment as well as all those that follow. It can be defined in the following way: • 0 corresponds to no activity, • 0.1 corresponds to a trace of color, • 0.5 corresponds to very pale coloration, • 1 corresponds to clear but low-intensity coloration, • 1.5 corresponds to a degree of coloration intermediate between scores 1 and 2, • 2 corresponds to clear coloration of moderate intensity, • 2.5 corresponds to a degree of coloration intermediate between scores 2 and 3, • 3 corresponds to intense coloration, • 3.5 corresponds to a degree of coloration intermediate between scores 3 and 4, • 4 corresponds to very intense coloration.
(§2) These substrates were lyophilized in the wells of API-type strips (Registered Trademark). Before use, the substrates contained in the wells were resuspended in an agar-free Columbia-type inoculation medium. These wells were then inoculated with a suspension (density=2 McFarland) of microorganisms taken from either the Applicant's own collection or the ATCC. The strips were incubated for 8 hours at 37° C. The colonies which grew were examined by eye after 4, 6 and 8 hours of incubation.
(§3) The intensity of the color of the colonies was recorded.

Listeria seeligeri 011 = tested on: Listeria seeligeri 011
Protocol: as §1, §2, §3

[1] = tested on: Listeria monocytogenes 092
Protocol: as §1, §2, §3

[2] = tested on: Listeria monocytogenes ATCC 19115
Protocol: as §1, §2, §3

Listeria innocua 166 = tested on: Listeria innocua 166
Protocol: as §1, §2, §3

[3] = tested on: Listeria grayi ATCC 19120
Protocol: as §1, §2, §3

Listeria innocua 171 = tested on: Listeria innocua 171
Protocol: as §1, §2, §3

Row | SMILES | I (intensity of the color) (Listeria welshimeri 023; IT 4 h) | I (intensity of the color) (Listeria welshimeri 023; IT 6 h) | I (intensity of the color) (Listeria welshimeri 023; IT 8 h) | I (intensity of the color) (Listeria seeligeri 011; IT 4 h) | I (intensity of the color) (Listeria seeligeri 011; IT 6 h) | I (intensity of the color) (Listeria seeligeri 011; IT 8 h) | I (intensity of the color) ([1]; IT 4 h) | I (intensity of the color) ([1]; IT 6 h) | I (intensity of the color) ([1]; IT 8 h) | I (intensity of the color) ([2]; IT 4 h) | I (intensity of the color) ([2]; IT 6 h) | I (intensity of the color) ([2]; IT 8 h) | I (intensity of the color) (Listeria innocua 166; IT 4 h) | I (intensity of the color) (Listeria innocua 166; IT 6 h) | I (intensity of the color) (Listeria innocua 166; IT 8 h) | I (intensity of the color) ([3]; IT 4 h) | I (intensity of the color) ([3]; IT 6 h) | I (intensity of the color) ([3]; IT 8 h) | I (intensity of the color) (Listeria innocua 171; IT 4 h) | I (intensity of the color) (Listeria innocua 171; IT 6 h) | further results
1 | CCCCCCCC(=O)Oc1c[nH]c2cc(Cl)c(Br)cc12 [Magenta-C8, 5-Bromo-6-chloro-3-indolyl octanoate] | — | — | — | — | — | — | — | — | 0.5 | — | — | 0.5 | — | — | — | — | — | — | — | — | I (intensity of the color) (Listeria innocua 171; IT 8 h): —
2 | CCCCCCCC(=O)Oc1c[nH]c2cc(Cl)ccc12 [Pink-C8, 6-Chloro-3-indolyl octanoate] | — | — | — | — | — | — | — | — | — | — | — | — | — | — | — | — | — | — | — | — | I (intensity of the color) (Listeria innocua 171; IT 8 h): —
3 | CCCCCCCC(=O)Oc1c[nH]c2ccc(Br)c(Cl)c12 [X-C8, 5-Bromo-4-chloro-3-indolyl octanoate] | — | — | — | — | 0.5 | 0.5 | — | 1 | 1.5 | — | 1 | 1.5 | — | — | — | — | — | — | — | — | I (intensity of the color) (Listeria innocua 171; IT 8 h): —
